The NIST ThermoML archive (doi:10.1016/j.fluid.2014.04.038)
Several values for one entry are separate records, joined by “and”; a condition that tells them apart may be missing. Equal values may be shown once. Numbers after ± are expanded uncertainties.

Conditions: Gas, Hot wire method

N#N [nitrogen]
Conditions | thermal conductivity
321.58 K, 2776.2 kPa | 0.0278 ± 0.0017 W/m/K
321.95 K, 2778.7 kPa | 0.02777 ± 0.0017 W/m/K
321.99 K, 2778.7 kPa | 0.02793 ± 0.0017 W/m/K
322.25 K, 2776.2 kPa | 0.02762 ± 0.0017 W/m/K
322.29 K, 2776.2 kPa | 0.02772 ± 0.0017 W/m/K
322.61 K, 2776.2 kPa | 0.02762 ± 0.0017 W/m/K
323.16 K, 1008.8 kPa | 0.02726 ± 0.0017 W/m/K
323.18 K, 1008.8 kPa | 0.02729 ± 0.0017 W/m/K
324.06 K, 1008.8 kPa | 0.02748 ± 0.0017 W/m/K
324.12 K, 1008.8 kPa | 0.02747 ± 0.0017 W/m/K
325.1 K, 1008.8 kPa | 0.0277 ± 0.0017 W/m/K and 0.02772 ± 0.0017 W/m/K
325.44 K, 574.1 kPa | 0.02822 ± 0.0017 W/m/K
326.18 K, 2705.7 kPa | 0.02794 ± 0.0017 W/m/K
326.24 K, 2705.7 kPa | 0.02859 ± 0.0018 W/m/K
326.43 K, 4299.5 kPa | 0.02906 ± 0.0018 W/m/K
326.51 K, 4299.5 kPa | 0.02914 ± 0.0018 W/m/K
326.67 K, 3835.8 kPa | 0.02909 ± 0.0018 W/m/K and 0.02897 ± 0.0018 W/m/K
326.72 K, 2705.7 kPa | 0.02848 ± 0.0018 W/m/K
326.75 K, 2705.7 kPa | 0.02853 ± 0.0018 W/m/K
327.32 K, 1657.7 kPa | 0.02798 ± 0.0017 W/m/K
327.57 K, 1657.7 kPa | 0.02789 ± 0.0017 W/m/K
327.66 K, 4299.5 kPa | 0.0294 ± 0.0018 W/m/K
327.7 K, 4299.5 kPa | 0.02966 ± 0.0018 W/m/K
327.84 K, 1209.3 kPa | 0.02782 ± 0.0017 W/m/K
327.85 K, 1209.3 kPa | 0.02748 ± 0.0017 W/m/K
327.86 K, 3835.8 kPa | 0.0294 ± 0.0018 W/m/K and 0.02906 ± 0.0018 W/m/K
328.83 K, 1657.7 kPa | 0.02814 ± 0.0017 W/m/K
328.85 K, 1657.7 kPa | 0.02817 ± 0.0017 W/m/K
329.15 K, 1209.3 kPa | 0.02785 ± 0.0017 W/m/K
329.17 K, 1209.3 kPa | 0.02784 ± 0.0017 W/m/K
330.94 K, 2682.6 kPa | 0.02851 ± 0.0018 W/m/K
330.96 K, 2682.6 kPa | 0.0287 ± 0.0018 W/m/K
332.04 K, 2682.6 kPa | 0.02834 ± 0.0017 W/m/K
332.12 K, 2682.6 kPa | 0.02902 ± 0.0018 W/m/K
335.72 K, 2657.4 kPa | 0.02849 ± 0.0018 W/m/K
335.73 K, 2657.4 kPa | 0.02905 ± 0.0018 W/m/K
336.01 K, 4212.3 kPa | 0.02961 ± 0.0018 W/m/K
336.02 K, 4212.3 kPa | 0.02949 ± 0.0018 W/m/K
336.33 K, 2657.4 kPa | 0.02874 ± 0.0018 W/m/K
336.36 K, 2657.4 kPa | 0.02885 ± 0.0018 W/m/K
337.13 K, 4212.3 kPa | 0.03001 ± 0.0018 W/m/K and 0.0297 ± 0.0018 W/m/K
340.86 K, 2579.4 kPa | 0.02926 ± 0.0018 W/m/K
340.87 K, 2579.4 kPa | 0.02913 ± 0.0018 W/m/K
341.16 K, 2579.4 kPa | 0.02959 ± 0.0018 W/m/K
341.21 K, 2579.4 kPa | 0.02922 ± 0.0018 W/m/K
